Measurements published in patent US20070161585A1, “Immunopotentiator and method for enhancing immunoactivity using the same” (priority 2003, published 2007).

Experiments:
[1] = test system: inflammatory cytokines (IL-6, IL-12 and TNF-α) in the serum; test: Serum inflammatory cytokines by ELISA after single intraperitoneal administration of ODN to mice; assay type: in vivo; conditions: Balb/c mouse; for IL-6 concentration in the serum / IL-12 concentration in the serum / TNF-α concentration in the serum: 10 nmol ODN in 400 μl saline, 2 hours later, mean; for Induction of inflammatory cytokines (in words): 10 nmol ODN, serum 2 hours later
Procedure: 10 nmol of each of GATC-dA (sequence containing a GATC sequence), GATC-m^6A (sequence containing a Gm^6ATC sequence), CpG-ODN1668 (sequence containing a non-methylated CpG sequence) and GpC-ODN1720 (sequence containing a […]) shown in Table 1 was collected, and dissolved in 400 μl of a physiological saline solution. The resulting solution was intraperitoneally administered to a Balb/c mouse (male, 6 weeks old; Sankyo Labo-Service). Two hours later, concentrations of inflammatory cytokines (IL-6, IL-12 and TNF-α) in the serum were measured by an enzyme-linked immunosorbent assay (ELISA; AN'ALIZA, Genzyme TECHNE corp.).
Two hours after the administration, the blood was collected from the heart of the mouse, and allowed to stand overnight at 4° C. The serum was collected therefrom by centrifugation (20,000 g, 20 minutes, 4° C.).
By the way, the results shown in FIGS. 1 to 3 are expressed in terms of a mean value±standard deviation. In the graphs, two asterisks indicate “P<0.01”, and three asterisks “P<0.005 (n=3 (IL-12), 4 (IL-6, TNF-α)))”.

[2] = test system: inflammatory cytokines in the serum of the mouse; test: Serum inflammatory cytokines by ELISA after simultaneous administration of Gm^6ATC sequence and non-methylated CpG sequence to mice; assay type: in vivo; conditions: 5 nmol CpG-ODN1668 alone or mixed with equimolar second ODN, 400 μl saline, 2 hours later, mean (n=4)
Procedure: Accordingly, the Gm^6ATC sequence and CpG-ODN1668 containing the non-methylated sequence were simultaneously administered to a mouse to confirm an effect of inducting inflammatory cytokines. Regarding the doses of Gm^6ATC, GATC-dA and CpG-ODN1668, 5 nmol of CpG-ODN1668 was mixed with an equimolar amount of Gm^6ATC or GATC-dA, and the mixture was dissolved in 400 μl of a physiological saline solution. The resulting solution was administered to a mouse. Two hours later, the inflammatory cytokines in the serum of the mouse were measured by ELISA to confirm induction amounts.
The results shown in FIGS. 4 to 6 are expressed in terms of a mean value±standard deviation (n=4). In the graphs, one asterisk indicates “P<0.05”, two asterisks “P<0.01” and three asterisks “P<0.005”.

Substance	IL-6 concentration in the serum [1] [pg/mL]	IL-12 concentration in the serum [1] [pg/mL]	TNF-α concentration in the serum [1] [pg/mL]	Induction of inflammatory cytokines (in words) [1]	IL-6 concentration in the serum [2] [pg/mL]	IL-12 concentration in the serum [2] [pg/mL]	TNF-α concentration in the serum [2] [pg/mL]
CpG-ODN1668: phosphothioate-stabilized oligonucleotide, non-methylated CpG motif, TCCATGACGTTCCTGATGCT (DNA TCCATGACGTTCCTGATGCT; phosphorothioate backbone, chemistry not fully specified)	2100	1000	1500	very strong inflammatory cytokines were induced	530	730	760
GATC-dA: phosphothioate-stabilized oligonucleotide, non-m^6A motif, TCCATGATCTTCCTGATGCT (DNA TCCATGATCTTCCTGATGCT; phosphorothioate backbone, chemistry not fully specified)	14	48	92	–	–	–	–
GpC-ODN1720: phosphothioate-stabilized oligonucleotide, non CpG motif, CC ATG AGC TTC CTG ATG CT (DNA CCATGAGCTTCCTGATGCT; phosphorothioate backbone, chemistry not fully specified)	28	33	47	little induced	–	–	–
